Measurements reported in patent publication US9770026B2, “Substituted pyrimidine compound and uses thereof” (Shenyang Sinochem Agrochemicals R&D Co., Ltd., priority 2012, dated 2017).

Tests used:
Diamond back moth = assay: insecticidal activity against diamond back moth, airbrush spray; assay type: in vivo; conditions: for pest or weed control at 10 µg/mL: 10 mg/L; for pest or weed control at 100 µg/mL: 100 mg/L; for pest or weed control at 600 µg/mL: 600 mg/L
Method in brief: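 Airbrush leaf-disc spray test: both faces of 2 cm cabbage discs received 0.5 ml of test solution at 0.7 kg/cm^2. Solutions were made in acetone:methanol (1:1) and brought to concentration with 0.1% Tween 80 in water. Ten second-instar larvae per disc, triplicates, were held at 25° C and 60˜70% R.H., with mortality recorded at 72 hrs.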

armyworm = assay: bioactivity test against armyworm, airbrush spray; assay type: in vivo; conditions: 72 h, read-out: Insecticidal activity against armyworm (%); for pest or weed control at 10 µg/mL: 10 mg/L; for pest or weed control at 100 µg/mL: 100 mg/L; for pest or weed control at 600 µg/mL: 600 mg/L
corn rust = assay: protectant activity in vivo against corn rust; conditions: for pest or weed control at 0.4 µg/mL: read-out: control effect against corn rust (%), 0.4 mg/L; for pest or weed control at 0.4 µg/mL / pest or weed control at 1.6 µg/mL / pest or weed control at 6.25 µg/mL / pest or weed control at 25 µg/mL / pest or weed control at 100 µg/mL / pest or weed control at 400 µg/mL: protectant activity; for pest or weed control at 1.6 µg/mL: read-out: control effect against corn rust (%), 1.6 mg/L; for pest or weed control at 6.25 µg/mL: read-out: control effect against corn rust (%), 6.25 mg/L; for pest or weed control at 25 µg/mL: read-out: control effect against corn rust (%), 25 mg/L; for pest or weed control at 100 µg/mL: read-out: control effect against corn rust (%), 100 mg/L; for pest or weed control at 400 µg/mL: read-out: control effect against corn rust (%), 400 mg/L
rice blast = assay: microbe, parasite or virus in culture; assay type: cell-based; conditions: Pyricularia oryzae, read-out: inhibition rate against rice blast, 25 ppm, in vitro
[1] = tested on: Green peach aphids (Myzus Persicae Sulzer); assay: bioactivity test against green peach aphid, airbrush foliar spray; assay type: in vivo; conditions: for pest or weed control at 2.5 µg/mL / pest or weed control at 5 µg/mL / pest or weed control at 10 µg/mL / pest or weed control at 100 µg/mL / pest or weed control at 600 µg/mL / Insecticidal activity against peach aphid (%): contrastive test; for pest or weed control at 2.5 µg/mL / pest or weed control at 5 µg/mL / pest or weed control at 10 µg/mL / pest or weed control at 100 µg/mL / pest or weed control at 600 µg/mL: read-out: Insecticidal activity against peach aphid (%)
Method in brief: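 Death rate was scored at 48 hrs, held at 25±1 C and 60±5% RH, following airbrush foliar spray (0.5 mL, 10 psi) onto cabbage leaf discs bearing about 15-30 aphids. Test solutions: compound dissolved in 1:1 acetone:methanol, brought to concentration with 0.1% tween 80 water.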

carmine spider mite = assay: bioactivity test against carmine spider mite, airbrush spray; assay type: in vivo; conditions: for control against carmine spider mite: mortality after 72 hrs
Method in brief: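 Broadbean seedlings infested with adult mites were sprayed with compound (acetone/methanol stock diluted in 0.1% Tween 80 water) by airbrush at 0.7 kg/cm^2, 0.5 ml. Three replicates were run. Mortality was scored after 72 hrs.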

wheat powdery mildew = assay: protectant activity in vivo against wheat powdery mildew
cucumber downy mildew = assay: protectant activity in vivo against cucumber downy mildew
[2] = Myzus persicae, foliar, 48 h, 2.5 mg/L
[3] = Myzus persicae, foliar, 48 h, 5 mg/L
[4] = Myzus persicae, foliar, 48 h, 10 mg/L
[5] = Myzus persicae, foliar, 48 h, 100 mg/L
[6] = Myzus persicae, foliar, 48 h, 600 mg/L

Compound: CCc1ncnc(NC(C)c2ccc(Oc3ccc(C(F)(F)F)cn3)cc2)c1Cl (stereo not shown) [CK40, reference compound]
- pest or weed control at 10 µg/mL (Diamond back moth; 72 h): 13%
- pest or weed control at 100 µg/mL (Diamond back moth; 72 h): 29%
- pest or weed control at 600 µg/mL (Diamond back moth; 72 h): 100%
- pest or weed control at 10 µg/mL (armyworm): 0%
- pest or weed control at 100 µg/mL (armyworm): 6%
- pest or weed control at 600 µg/mL (armyworm): 43%
- pest or weed control at 0.4 µg/mL (corn rust; Zea mays, 168 h): 0%
- pest or weed control at 1.6 µg/mL (corn rust; Zea mays, 168 h): 30%
- pest or weed control at 6.25 µg/mL (corn rust; Zea mays, 168 h): 70%
- pest or weed control at 25 µg/mL (corn rust; Zea mays, 168 h): 90%
- pest or weed control at 100 µg/mL (corn rust; Zea mays, 168 h): 100%
- pest or weed control at 400 µg/mL (corn rust; Zea mays, 168 h): 100%
- inhibition at 25 ppm (rice blast): < 50%
- pest or weed control at 2.5 µg/mL [1, 2]: 0%
- pest or weed control at 5 µg/mL [1, 3]: 27%
- pest or weed control at 10 µg/mL [1, 4]: 72%
- pest or weed control at 100 µg/mL [1, 5]: 100%
- pest or weed control at 600 µg/mL [1, 6]: 100%

Compound: CCC(Nc1ncnc(C)c1Cl)c1ccc(Oc2ccc(C(F)(F)F)cn2)cc1 (stereo not shown) [CK41, reference compound]
- pest or weed control at 10 µg/mL (carmine spider mite; Tetranychus cinnabarinus, 72 h, 10 mg/L, contrastive test, read-out: Insecticidal activity against carmine spider mite (% )): 0%
- pest or weed control at 100 µg/mL (carmine spider mite; Tetranychus cinnabarinus, 72 h, 100 mg/L, contrastive test, read-out: Insecticidal activity against carmine spider mite (% )): 99%
- pest or weed control at 600 µg/mL (carmine spider mite; Tetranychus cinnabarinus, 72 h, 600 mg/L, contrastive test, read-out: Insecticidal activity against carmine spider mite (% )): 100%
- pest or weed control at 10 µg/mL (Diamond back moth; 72 h): 0%
- pest or weed control at 100 µg/mL (Diamond back moth; 72 h): 53%
- pest or weed control at 600 µg/mL (Diamond back moth; 72 h): 86%
- pest or weed control at 10 µg/mL (armyworm): 0%
- pest or weed control at 100 µg/mL (armyworm): 0%
- pest or weed control at 600 µg/mL (armyworm): 100%
- pest or weed control at 0.4 µg/mL (corn rust; Zea mays, 168 h): 0%
- pest or weed control at 1.6 µg/mL (corn rust; Zea mays, 168 h): 20%
- pest or weed control at 6.25 µg/mL (corn rust; Zea mays, 168 h): 80%
- pest or weed control at 25 µg/mL (corn rust; Zea mays, 168 h): 90%
- pest or weed control at 100 µg/mL (corn rust; Zea mays, 168 h): 100%
- pest or weed control at 400 µg/mL (corn rust; Zea mays, 168 h): 100%
- inhibition at 25 ppm (rice blast): < 50%
- pest or weed control at 6.25 µg/mL (wheat powdery mildew; Triticum aestivum, 168 h, read-out: control effect against wheat powdery mildew (%), 6.25 mg/L, protectant activity): 0%
- pest or weed control at 25 µg/mL (wheat powdery mildew; Triticum aestivum, 168 h, read-out: control effect against wheat powdery mildew (%), 25 mg/L, protectant activity): 50%
- pest or weed control at 100 µg/mL (wheat powdery mildew; Triticum aestivum, 168 h, read-out: control effect against wheat powdery mildew (%), 100 mg/L, protectant activity): 70%
- pest or weed control at 400 µg/mL (wheat powdery mildew; Triticum aestivum, 168 h, read-out: control effect against wheat powdery mildew (%), 400 mg/L, protectant activity): 100%
- pest or weed control at 2.5 µg/mL [1, 2]: 0%
- pest or weed control at 5 µg/mL [1, 3]: 15%
- pest or weed control at 10 µg/mL [1, 4]: 23%
- pest or weed control at 100 µg/mL [1, 5]: 97%
- pest or weed control at 600 µg/mL [1, 6]: 100%

Compound: CCc1ncnc(NCCc2ccc(Oc3ccc(C(F)(F)F)cn3)cc2)c1Cl [Compound I-254]
- Insecticidal activity against carmine spider mite (% ) (carmine spider mite; 2.5 mg/L): 79%
- Insecticidal activity against carmine spider mite (% ) (carmine spider mite; 5 mg/L): 93%
- Insecticidal activity against carmine spider mite (% ) (carmine spider mite; 10 mg/L, contrastive test): 97%
- Insecticidal activity against carmine spider mite (% ) (carmine spider mite; 100 mg/L, contrastive test): 100%
- Insecticidal activity against carmine spider mite (% ) (carmine spider mite; 600 mg/L, contrastive test): 100%
- control against carmine spider mite (carmine spider mite; 10 ppm): 100%
- control against carmine spider mite (carmine spider mite; 100 ppm): 100%
- control against carmine spider mite (carmine spider mite; 600 ppm): 100%
- control (test results against diamond back moth) (Diamond back moth; 600 ppm, mortality after 72 hrs): 100%
- pest or weed control at 100 ppm (Diamond back moth; 72 h, 100 ppm, mortality after 72 hrs, read-out: control (test results against diamond back moth)): 100%
- protectant activity against corn rust in vivo (corn rust; 100 ppm): 100%
- protectant activity against corn rust in vivo (corn rust; 400 ppm): 100%
- pest or weed control at 0.4 µg/mL (corn rust; Zea mays, 168 h): 40%
- pest or weed control at 1.6 µg/mL (corn rust; Zea mays, 168 h): 95%
- pest or weed control at 6.25 µg/mL (corn rust; Zea mays, 168 h): 100%
- pest or weed control at 25 µg/mL (corn rust; Zea mays, 168 h): 100%
- pest or weed control at 100 µg/mL (corn rust; Zea mays, 168 h): 100%
- pest or weed control at 400 µg/mL (corn rust; Zea mays, 168 h): 100%
- pest or weed control at 6.25 ppm (corn rust; Zea mays, 168 h, read-out: protectant activity against corn rust in vivo, 6.25 ppm): 100%
- pest or weed control at 25 ppm (corn rust; Zea mays, 168 h, read-out: protectant activity against corn rust in vivo, 25 ppm): 100%
- protectant activity against cucumber downy mildew in vivo (cucumber downy mildew; 100 ppm): 100%
- protectant activity against cucumber downy mildew in vivo (cucumber downy mildew; 400 ppm): 100%
- pest or weed control at 50 ppm (cucumber downy mildew; Cucumis sativus, 168 h, read-out: protectant activity against cucumber downy mildew in vivo, 50 ppm): 100%
- inhibition at 25 ppm (rice blast): 80 to 99%
- control effect against wheat powdery mildew (%) (wheat powdery mildew; 6.25 mg/L, protectant activity): 100%
- control effect against wheat powdery mildew (%) (wheat powdery mildew; 25 mg/L, protectant activity): 100%
- control effect against wheat powdery mildew (%) (wheat powdery mildew; 100 mg/L, protectant activity): 100%
- control effect against wheat powdery mildew (%) (wheat powdery mildew; 400 mg/L, protectant activity): 100%
- protectant activity against wheat powdery mildew in vivo (wheat powdery mildew; 100 ppm): 100%
- protectant activity against wheat powdery mildew in vivo (wheat powdery mildew; 400 ppm): 100%
- pest or weed control at 1.6 µg/mL (wheat powdery mildew; Triticum aestivum, 168 h, read-out: control effect against wheat powdery mildew (%), 1.6 mg/L, protectant activity): 20%
- Insecticidal activity against peach aphid (%) ([1]; 1.25 mg/L): 100%
- Insecticidal activity against peach aphid (%) ([1]; 2.5 mg/L): 100%
- Insecticidal activity against peach aphid (%) ([1]; 5 mg/L): 100%
- Insecticidal activity against peach aphid (%) ([1]; 10 mg/L): 100%
- Insecticidal activity against peach aphid (%) ([1]; 100 mg/L): 100%
- Insecticidal activity against peach aphid (%) ([1]; 600 mg/L): 100%
- control (test results against green peach aphid) ([1]; 5 ppm, death rate after 48 hrs): 100%
- control (test results against green peach aphid) ([1]; 10 ppm, death rate after 48 hrs): 100%
- control (test results against green peach aphid) ([1]; 100 ppm, death rate after 48 hrs): 100%
- control (test results against green peach aphid) ([1]; 600 ppm, death rate after 48 hrs): 100%
- pest or weed control at 2.5 ppm ([1]; Myzus persicae, foliar, 48 h, 2.5 ppm, death rate after 48 hrs): 100%
